Reference: patent US6124323A, “4-substituted piperidine analogs and their use as subtype selective NMDA receptor antagonists” (Warner-Lambert Company, priority 1998, dated 2000)
Counter-ions that a name gives are not always drawn.

Experiments:
[1] = target: T1, NMDA receptor subunits 1A/2A (Rattus norvegicus, UniProt P35439+Q00959); assay: Electrophysiological assay at NMDA receptor subunits expressed in Xenopus oocytes, 1A/2A; type: cell-based; details: glutamate 100 μm and glycine 1-100 μm
T1 construct: expressed in transfected cells; host or cells: Xenopus laevis oocytes (cRNA injection; clones from Dr. P. H. Seeburg)
T1 sequence (Q00959 20-1464 limits assumed, other chains not shown): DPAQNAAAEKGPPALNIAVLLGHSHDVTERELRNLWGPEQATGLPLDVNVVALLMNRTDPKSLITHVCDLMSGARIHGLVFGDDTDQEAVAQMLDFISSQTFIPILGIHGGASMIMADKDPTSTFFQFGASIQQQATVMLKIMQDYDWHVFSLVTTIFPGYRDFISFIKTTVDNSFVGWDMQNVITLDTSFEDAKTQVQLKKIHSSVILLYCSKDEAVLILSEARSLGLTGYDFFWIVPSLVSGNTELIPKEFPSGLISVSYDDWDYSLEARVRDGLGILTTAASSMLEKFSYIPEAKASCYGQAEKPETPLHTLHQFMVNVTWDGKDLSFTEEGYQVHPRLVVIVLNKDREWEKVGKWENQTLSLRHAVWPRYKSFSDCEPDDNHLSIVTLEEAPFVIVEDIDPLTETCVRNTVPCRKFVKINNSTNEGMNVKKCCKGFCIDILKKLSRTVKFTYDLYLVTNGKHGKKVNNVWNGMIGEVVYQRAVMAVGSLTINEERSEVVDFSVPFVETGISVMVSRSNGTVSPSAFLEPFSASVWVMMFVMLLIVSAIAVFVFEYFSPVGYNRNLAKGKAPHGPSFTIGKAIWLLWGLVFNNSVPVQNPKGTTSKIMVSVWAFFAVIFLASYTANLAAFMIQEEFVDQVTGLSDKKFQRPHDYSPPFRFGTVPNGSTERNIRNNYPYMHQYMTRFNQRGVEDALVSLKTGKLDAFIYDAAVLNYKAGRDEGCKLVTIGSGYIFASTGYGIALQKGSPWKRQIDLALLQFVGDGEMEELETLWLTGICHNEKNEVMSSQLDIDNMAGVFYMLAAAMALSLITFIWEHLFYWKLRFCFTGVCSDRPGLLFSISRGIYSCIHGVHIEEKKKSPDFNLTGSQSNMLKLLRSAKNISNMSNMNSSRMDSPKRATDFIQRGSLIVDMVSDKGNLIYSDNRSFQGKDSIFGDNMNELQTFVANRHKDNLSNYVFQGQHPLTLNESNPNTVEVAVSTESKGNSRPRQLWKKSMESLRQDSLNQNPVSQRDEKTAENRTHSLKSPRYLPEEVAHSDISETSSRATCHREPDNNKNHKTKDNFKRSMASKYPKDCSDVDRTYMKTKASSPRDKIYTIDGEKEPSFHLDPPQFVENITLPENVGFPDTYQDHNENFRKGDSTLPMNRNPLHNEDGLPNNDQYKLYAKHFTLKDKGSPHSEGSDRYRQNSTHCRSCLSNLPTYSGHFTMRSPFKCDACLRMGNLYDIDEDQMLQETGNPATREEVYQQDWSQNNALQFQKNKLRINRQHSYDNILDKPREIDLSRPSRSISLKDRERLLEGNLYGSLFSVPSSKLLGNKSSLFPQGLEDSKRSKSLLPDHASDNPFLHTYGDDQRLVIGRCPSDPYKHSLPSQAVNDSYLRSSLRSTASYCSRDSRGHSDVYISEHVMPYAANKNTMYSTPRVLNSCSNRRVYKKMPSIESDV
Description: (§1) Many of the properties of native NMDA receptors are seen in recombinant homomeric NR1 receptors. These properties are altered by the NR2 subunits. Recombinant NMDA receptors expressed in Xenopus oocytes have been studied by voltage-clamp recording, as has developmental and regional expression of the mRNAs encoding NMDA receptor subunits. Electrophysiological assays were utilized to characterize the actions of compounds at NMDA receptors expressed in Xenopus oocytes. The compounds were assayed at four subunit combinations of cloned rat NMDA receptors, corresponding to three putative NMDA receptor subtypes [Moriyoshi, et al. Nature 1991, 354, 31-37; Monyer et al, Science 1992, 256, 1217-1221; Kutsuwada et al, Nature 1992, 358, 36-41; Sugihara et al, Biochem. Biophys Res. Commun. 1992, 185, 826-832].
(§2) Electrophysiological Assays at NMDA Receptor Subunits
(§3) Preparation of RNA. cDNA clones encoding the NR1A, NR2A, NR2B, NR2C and NR2D rat NMDA receptor subtypes were provided by Dr. P. H. Seeburg (see, Moriyoshi et al., Nature (Lond.) 354:31-37 (1991); Kutsuwada et al., Nature (Lond.) 358:36-41 (1992) Monyer et al., Science (Washington, D.C.) 256:1217-1221 (1992); Ikeda et al., FEBS Lett. 313:34-38 (1992); Ishii et al., J. Biol. Chem. 268:2836-2843 (1993) for details of these clones or their mouse homologs). The clones were transformed into appropriate host bacteria and plasmid preparations were made with conventional DNA purification techniques. A sample of each clone was linearized by restriction enzyme digestion and cRNA was synthesized with T3 RNA polymerase. The cRNA was diluted to 400 ng/μl and stored in 1 μl aliquots at -80° C. until injection.
(§4) The Xenopus oocyte expression system. Mature female Xenopus laevis were anaesthetized (20-40 min) using 0.15% 3-aminobenzoic acid ethyl ester (MS-222) and 2-4 ovarian lobes were surgically removed. Oocytes at developmental stages IV-VI (Dumont, J. N., J. Morphol. 136:153-180 (1972)), were dissected from the ovary still surrounded by enveloping ovarian tissues. Follicle-enclosed oocytes were micro-injected with 1:1 mixtures of cRNA:NR1A+NR2A, 2B, 2C or 2D; injecting ~2,5, or 20 ng of RNA encoding each receptor subunit. NR1A encoding cRNA was injected alone at ~20 ng. Oocytes were stored in Barth's medium containing (in mM):NaCl, 88; KCl, 1; CaCl2, 0.41; Ca(NO3)2, 0.33; MgSO4, 0.82 NaHCO3, 2.4; HEPES 5, pH 7.4, with 0.1 mg/ml gentamicin sulphate. While oocytes were still surrounded by enveloping ovarian tissues the Barth's medium was supplemented with 0.1% bovine serum. Oocytes were defolliculated 1-2 days following injections by treatment with collagenase (0.5 mg/ml Sigma Type I for 0.5-1 hr) (Miledi and Woodward, J. Physiol. (Lond.) 416:601-621 (1989)) and subsequently stored in serum-free medium.
(§5) Electrical recordings were made using a conventional two-electrode voltage clamp (Dagan TEV-200) over periods ranging between 3-21 days following injection. (Woodward et al., Mol. Pharmacol. 41: 89-103 (1992)). Oocytes were placed in a 0.1 ml recording chamber continuously perfused (5-15 ml min^-1 ) with frog Ringer's solution containing (in mM):NaCl, 115; KCl, 2; CaCl2, 1.8; HEPES, 5; pH 7.4. Drugs were applied by bath perfusion. Using oocytes expressing different subunit combinations of NMDA receptor, NMDA currents were activated by co-application of glutamate (100 μm) and glycine (1-100 μm). Inhibitory potency of the novel antagonists was assessed on responses elicited by fixed concentrations of glutamate and glycine, by measuring reductions in current induced by progressively increasing concentrations of antagonist. Concentration-inhibition curves were fit with equation 1.
(§6) I/Icontrol =1/(1+([antagonist]/10^-pIC50)^n) Eq. 1
(§7) in which Icontrol is the current evoked by agonists alone, pIC50 =-log IC50, IC50 is the concentration of antagonist that produces half maximal inhibition, and n is the slope factor. (De Lean et al., Am. J. Physiol. 235:E97-102 (1978)). […]

[2] = target: T2, NMDA receptor subunits 1A/2B (Rattus norvegicus, UniProt P35439+Q00960); assay: Electrophysiological assay at NMDA receptor subunits expressed in Xenopus oocytes, 1A/2B; type: cell-based; details: Xenopus oocytes; glutamate 100 μm and glycine 1-100 μm; read-out: Subunits IC50, 1A/2B
T2 construct: expressed in transfected cells; host or cells: Xenopus laevis oocytes (cRNA injection; clones from Dr. P. H. Seeburg)
T2 sequence (Q00960 27-1482, other chains not shown): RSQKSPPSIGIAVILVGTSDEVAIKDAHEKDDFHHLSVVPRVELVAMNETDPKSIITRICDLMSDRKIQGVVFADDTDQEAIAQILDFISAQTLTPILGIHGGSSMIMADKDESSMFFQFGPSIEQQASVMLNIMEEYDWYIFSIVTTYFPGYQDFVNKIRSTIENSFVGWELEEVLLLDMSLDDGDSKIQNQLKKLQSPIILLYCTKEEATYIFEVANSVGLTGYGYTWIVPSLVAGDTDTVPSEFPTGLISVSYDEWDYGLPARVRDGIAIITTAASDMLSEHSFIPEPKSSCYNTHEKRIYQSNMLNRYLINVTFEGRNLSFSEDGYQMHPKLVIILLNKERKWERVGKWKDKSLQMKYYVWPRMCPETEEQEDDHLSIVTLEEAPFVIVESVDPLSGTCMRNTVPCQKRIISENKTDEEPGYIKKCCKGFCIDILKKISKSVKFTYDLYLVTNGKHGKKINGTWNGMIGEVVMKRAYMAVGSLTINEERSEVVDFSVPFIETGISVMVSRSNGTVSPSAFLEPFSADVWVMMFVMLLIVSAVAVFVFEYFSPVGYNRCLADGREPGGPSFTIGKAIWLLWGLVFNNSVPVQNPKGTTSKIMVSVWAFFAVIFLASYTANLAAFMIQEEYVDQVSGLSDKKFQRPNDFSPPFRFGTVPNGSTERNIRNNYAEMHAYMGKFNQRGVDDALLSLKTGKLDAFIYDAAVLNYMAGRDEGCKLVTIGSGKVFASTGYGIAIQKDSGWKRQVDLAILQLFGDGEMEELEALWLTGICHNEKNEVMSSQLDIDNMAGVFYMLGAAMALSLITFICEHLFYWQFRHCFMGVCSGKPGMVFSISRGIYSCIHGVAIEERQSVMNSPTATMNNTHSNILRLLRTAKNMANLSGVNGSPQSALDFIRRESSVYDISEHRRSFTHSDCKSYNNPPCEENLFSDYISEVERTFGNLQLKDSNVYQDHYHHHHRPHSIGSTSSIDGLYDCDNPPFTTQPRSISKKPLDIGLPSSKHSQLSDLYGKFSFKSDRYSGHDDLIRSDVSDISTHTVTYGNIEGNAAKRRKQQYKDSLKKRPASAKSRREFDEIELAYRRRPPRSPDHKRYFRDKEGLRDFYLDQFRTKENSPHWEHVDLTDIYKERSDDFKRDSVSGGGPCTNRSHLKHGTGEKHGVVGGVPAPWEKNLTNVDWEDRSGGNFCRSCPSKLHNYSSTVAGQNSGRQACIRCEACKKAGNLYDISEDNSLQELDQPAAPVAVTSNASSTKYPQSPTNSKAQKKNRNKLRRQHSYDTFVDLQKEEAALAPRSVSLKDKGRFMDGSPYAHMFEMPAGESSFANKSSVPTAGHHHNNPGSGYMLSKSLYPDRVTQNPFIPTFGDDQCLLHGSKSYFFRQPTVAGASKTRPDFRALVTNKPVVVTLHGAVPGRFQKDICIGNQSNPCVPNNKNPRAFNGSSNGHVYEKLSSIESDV
Description: as §1, §2, §3, §4, §5, §6, §7

[3] = target: T3, NMDA receptor subunits 1A/2C (Rattus norvegicus, UniProt P35439+Q00961); assay: Electrophysiological assay at NMDA receptor subunits expressed in Xenopus oocytes, 1A/2C; type: cell-based; details: Xenopus oocytes; glutamate 100 μm and glycine 1-100 μm; read-out: Subunits IC50, 1A/2C
T3 construct: expressed in transfected cells; host or cells: Xenopus laevis oocytes (cRNA injection; clones from Dr. P. H. Seeburg)
T3 sequence (Q00961 20-1237, other chains not shown): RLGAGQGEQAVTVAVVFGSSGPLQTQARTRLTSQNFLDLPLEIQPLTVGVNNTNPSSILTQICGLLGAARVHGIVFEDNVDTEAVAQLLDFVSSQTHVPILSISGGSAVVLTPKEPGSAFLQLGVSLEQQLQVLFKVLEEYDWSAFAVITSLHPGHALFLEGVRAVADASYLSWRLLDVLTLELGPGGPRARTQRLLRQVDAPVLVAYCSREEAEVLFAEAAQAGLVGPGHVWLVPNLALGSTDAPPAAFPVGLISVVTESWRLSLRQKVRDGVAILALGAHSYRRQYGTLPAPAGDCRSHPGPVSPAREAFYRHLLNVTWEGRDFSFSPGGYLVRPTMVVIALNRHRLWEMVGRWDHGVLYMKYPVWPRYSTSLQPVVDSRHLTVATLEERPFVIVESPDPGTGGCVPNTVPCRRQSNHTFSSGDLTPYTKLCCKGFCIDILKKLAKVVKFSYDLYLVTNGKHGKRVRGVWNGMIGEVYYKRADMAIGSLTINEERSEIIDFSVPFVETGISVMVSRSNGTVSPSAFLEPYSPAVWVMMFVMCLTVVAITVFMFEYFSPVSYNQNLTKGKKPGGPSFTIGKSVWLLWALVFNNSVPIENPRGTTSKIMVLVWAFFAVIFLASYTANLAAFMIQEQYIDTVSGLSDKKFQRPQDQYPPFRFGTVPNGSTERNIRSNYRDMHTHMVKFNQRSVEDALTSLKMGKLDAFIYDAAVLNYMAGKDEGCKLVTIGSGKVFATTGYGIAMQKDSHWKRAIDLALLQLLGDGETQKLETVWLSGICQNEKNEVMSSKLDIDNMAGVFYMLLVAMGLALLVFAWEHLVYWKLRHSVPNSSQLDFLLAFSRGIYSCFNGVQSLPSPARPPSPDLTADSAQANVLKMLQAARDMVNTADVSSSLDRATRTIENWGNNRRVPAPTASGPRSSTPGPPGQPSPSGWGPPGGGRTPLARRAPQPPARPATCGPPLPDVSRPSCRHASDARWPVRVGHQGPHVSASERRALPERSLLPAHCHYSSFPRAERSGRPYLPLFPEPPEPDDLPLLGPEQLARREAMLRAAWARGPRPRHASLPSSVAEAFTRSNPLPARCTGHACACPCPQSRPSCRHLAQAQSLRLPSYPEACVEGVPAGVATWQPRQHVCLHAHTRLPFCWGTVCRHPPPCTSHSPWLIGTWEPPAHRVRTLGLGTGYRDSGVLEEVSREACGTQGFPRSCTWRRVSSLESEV
Description: as §1, §2, §3, §4, §5, §6, §7

[4] = test system: Maximal Electroshock-induced Seizures; assay: Maximal electroshock-induced seizures (MES); type: in vivo; details: Mus musculus; mice; 50 mA, 60 pulses/sec, 1 sec
Description: Seizures were induced by application of current (50 mA, 60 pulses/sec, 0.8 sec pulse width, 1 sec duration, d.c.) through saline-coated corneal electrodes using a Ugo Basile ECT device (Model 7801). […] A tonic seizure was defined as a hindlimb extension in excess of 90 degrees from the plane of the body.

SMILES	IC50 [1] [µM]	IC50 [2] [µM]	IC50 [3] [µM]	ED50 [4] [mg/kg]
c1ccc(CC2CCN(CCCOc3ccccc3)CC2)cc1 [Ex. 2, 4-Benzyl-1-(3-phenoxypropyl)piperidine]	89	1.1	> 100	3
Cl.O=Cc1cccc(OCCN2CCC(Cc3ccccc3)CC2)c1 [Ex. 15, 3-((2-(4-Benzylpiperidin-1-yl)ethyl)oxy)benzaldehyde hydrochloride]	–	1.2	> 100	100
ON=Cc1cccc(OCCN2CCC(Cc3ccccc3)CC2)c1 [Ex. 16, 3-((2-(4-Benzylpiperidin-1-yl)ethyl)oxy)benzaldehyde oxime]	–	0.5	> 100	2.5
NC(=O)Cc1cccc(OCCN2CCC(Cc3ccccc3)CC2)c1 [Ex. 19, 1-(2-(3-(Aminocarbonylmethyl)phenoxy)ethyl)-4-benzylpiperidine]	–	0.35	–	6
O=[N+]([O-])c1ccc(OCCN2CCC(Cc3ccc(Cl)cc3)CC2)cc1 [Ex. 27, 4-(4-Chlorobenzyl)-1-(2-(4-nitrophenoxy)ethyl)piperidine hydrobromide]	–	5	> 100	5
Fc1ccc(CC2CCN(CCOc3ccc(F)cc3)CC2)cc1 [Ex. 33, 4-(4-Fluorobenzyl)-1-(2-(4-fluorophenoxy)ethyl)piperidine hydrochloride]	–	2	> 100	4
Nc1cccc(OCCN2CCC(Cc3ccccc3)CC2)c1N [Ex. 53, 4-Benzyl-1-[2-(2,3-diaminophenoxy)ethyl]piperidine]	–	0.31	> 100	2.5
Nc1ccc(OCCN2CCC(Cc3ccccc3)CC2)cc1N [Ex. 57, 4-Benzyl-1-[2-(3,4-diaminophenoxy)ethyl]piperidine]	–	0.3	> 100	6.5
Nc1ccccc1OCCN1CCC(Cc2ccccc2)CC1 [Ex. 61, 4-Benzyl-1-[2-(2-aminophenoxy)ethyl]piperidine]	–	0.3	> 100	2.5
Nc1cccc(OCCN2CCC(Cc3ccccc3)CC2)c1 [Ex. 63, 4-Benzyl-1-[2-(3-aminophenoxy)ethyl]piperidine]	–	0.5	> 100	3
Nc1ccc(OCCN2CCC(Cc3ccccc3)CC2)cc1 [Ex. 65, 4-Benzyl-1-[2-(4-aminophenoxy)ethyl]piperidine]	–	–	–	6
COc1ccc(OCCN2CCC(Cc3ccccc3)CC2)cc1 [Ex. 70]	–	1	> 100	1.5
c1ccc(CCN2CCC(Cc3ccccc3)CC2)cc1 [Ex. 83, 4-Benzyl-1-(2-phenylethyl)piperidine hydrochloride]	–	1	> 100	2
OC1(Cc2ccccc2)CCN(CCc2ccccc2)CC1 [Ex. 90, 4-Benzyl-4-hydroxy-1-(2-phenylethyl)piperidine hydrochloride]	–	5	> 100	5
O=c1[nH]c2ccccc2n1C1CCN(CCCOc2ccccc2)CC1 [Ex. 96, 4-(2-Keto-1-benzimidazolinyl)-1-(3-phenoxypropyl)piperidine hydrobromide]	–	17	> 100	3.5
Oc1ccc(OCCN2CCC(Cc3ccc4c(c3)CCCC4)CC2)cc1 [Ex. 139, 4-((5,6,7,8-Tetrahydro-2-naphthyl)methyl)-1-(2-(4-hydroxyphenoxy)ethyl)piperidine hydrochloride]	70	0.25	–	4.5
Cl.Oc1ccc(OCCN2CCC(Cc3ccc(F)cc3)CC2)cc1F [Ex. 150, 1-[2-(4-Hydroxy-3-fluorophenoxy)ethyl]-4-(4-fluorobenzyl)piperidine hydrochloride]	–	0.02	> 300	3
Cc1cc(OCCN2CCC(Cc3ccc(F)cc3)CC2)ccc1O [Ex. 152, 1-[2-(4-Hydroxy-3-methylphenoxy)ethyl]-4-(4-fluorobenzyl)piperidine hydrochloride]	90	0.04	200	–
Cc1ccc(CC2CCN(CCOc3ccc(O)c(C)c3)CC2)cc1 [Ex. 153, 1-[2-(4-Hydroxy-3-methylphenoxy)ethyl]-4-(4-methylbenzyl)piperidine hydrochloride]	65	0.04	70	–
Cc1ccc(CC2(O)CCN(CCOc3ccc(O)c(C)c3)CC2)cc1 [Ex. 155, 1-[2-(4-hydroxy-3-methylphenoxy)ethyl]-4-hydroxy-4-(4-methylbenzyl)piperidine hydrochloride]	170	0.03	> 300	–
Oc1cccc(OCCN2CCC(Cc3ccc(F)cc3)CC2)c1 [Ex. 159, 4-(4-Fluorobenzyl)-1-[2-(3-Hydroxyphenoxy)ethyl]piperidine hydrochloride]	130	0.5	140	–
Cc1ccc(CC2CCN(CCOc3cccc(O)c3)CC2)cc1 [Ex. 160, 1-[2-(3-Hydroxyphenoxy)ethyl]-4-(4-methylbenzyl)piperidine hydrochloride]	60	0.2	120	–
Cc1ccc(CC2CCN(CCOc3ccccc3O)CC2)cc1 [Ex. 161, 1-[2-(2-Hydroxyphenoxy)ethyl]-4-(4-methylbenzyl)piperidine hydrochloride]	85	0.04	170	–
CN(CCN1CCC(Cc2ccccc2)CC1)c1ccc(O)cc1 [Ex. 163, 4-Benzyl-1-(2-(N-methyl-4-hydroxyanilino)ethyl)piperidine dihydrochloride]	35	0.1	> 300	–
N=c1[nH]c2ccc(OCCN3CCC(Cc4ccccc4)CC3)cc2[nH]1 [Ex. 172, 4-Benzyl-1-(2-(2-iminobenzimidazol-5-oxy)ethyl)piperidine]	140	0.11	50	–
Oc1ccc2cc(OCCN3CCC(Cc4ccc(F)cc4)CC3)ccc2c1 [Ex. 191, 4-(4-Fluorobenzyl)-1-(2-(2-hydroxynaphth-6-oxy)ethyl)piperidine]	25	0.1	> 300	–
Cc1ccc(CC2CCN(CCOc3ccc4cc(O)ccc4c3)CC2)cc1 [Ex. 192, 4-(4-Methylbenzyl)-1-(2-(2-hydroxynaphth-6-oxy)ethyl)piperidine]	> 300	0.1	> 300	–
O=C1Cc2cc(OCCN3CCC(Cc4ccc(F)cc4)CC3)ccc2N1 [Ex. 195, 4-(4-Fluorobenzyl)-1-(2-(2-oxo-1,3-dihydroindol-5-oxy)ethyl)piperidine]	> 300	0.07	> 300	–
